Laboratory results published in patent EP3156398A1, “AGONISTS OF THE CHEMOKINE RECEPTOR CXCR3” (Friedrich-Alexander-Universität Erlangen-Nürnberg, priority 2015, dated 2017).
Read-outs that look alike come from different tables or passages of the source.

Key:
CXCR3 = biological target: T1, CXCR3 (Homo sapiens, UniProt P49682); test: [35S]GTPγS incorporation assay; type: biochemical; details: for Emax / CXCR3 Efficacy (%) ± SEM: % of CXCL11 mediated effect; for Emax / CXCR3 pEC50 ± SEM / CXCR3 Efficacy (%) ± SEM: membrane preparations of HEK293T stably expressing CXCR3; for Emax: read-out: CXCR3 Efficacy (%) ± SEM; for CXCR3 pEC50 ± SEM: mean of three experiments in triplicate
T1 construct: expressed in transfected cells; host or cells: HEK293 / HEK293T cells, stably transfected; membrane preparations
T1 sequence (P49682 1-368): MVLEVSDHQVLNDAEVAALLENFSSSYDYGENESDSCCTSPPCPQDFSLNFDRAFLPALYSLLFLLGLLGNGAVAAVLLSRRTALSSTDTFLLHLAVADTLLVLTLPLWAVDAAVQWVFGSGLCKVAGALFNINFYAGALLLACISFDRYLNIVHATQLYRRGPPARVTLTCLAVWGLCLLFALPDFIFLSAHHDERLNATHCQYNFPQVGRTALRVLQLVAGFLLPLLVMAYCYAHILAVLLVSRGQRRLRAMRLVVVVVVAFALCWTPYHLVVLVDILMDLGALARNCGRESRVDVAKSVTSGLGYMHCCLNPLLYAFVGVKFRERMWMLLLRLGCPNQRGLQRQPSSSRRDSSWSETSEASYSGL
Procedure: Membrane preparation for allosteric radioligand RAMX3 displacement and [^35S]GTPγS incorporation assays: The human embryonic kidney (HEK) cells stably expressing the human CXCR3 receptor were cultured in 150-mm cell culture plates in DMEM/F-12 supplemented with 10% fetal bovine serum (FBS), 2 mM L-glutamine, 1% penicillin-streptomycin, 300 µgmL^-1 Zeocin and incubated at 37 °C in a humid atmosphere with 5% CO2. At 100% confluency cells were washed with PBS twice, treated with Tris EDTA buffer (10 mM Tris, 0.5 mM EDTA, 5 mM KCl, 140 mM NaCl, pH 7.4), and harvested using a cell scraper. Cells were pelleted at 1100×g for 8 min at 4 °C, resuspended in Tris-EDTA-MgCl2 buffer (50mM Tris, 5 mM EDTA, 1.5 mM CaCl2, 5 mM MgCl2, 5 mM KCl, 120 mM NaCl, pH 7.4) and followed by lysis with an Ultra-Turrax. After centrifugation at 50,000•g, at 4°C for 18 min the membranes were resuspended in the binding buffer (50 mM Tris, 1 mM EDTA, 5 mM MgCl2 and subsequently homogenized with a glass-Teflon homogenizer (20 strokes). The homogenized membranes were shock-frozen in liquid nitrogen and stored at -80°C. The protein concentration was determined with the Lowry method with bovine serum albumin used as a standard.^35
[^35S]GTPγS incorporation assay: The [^35S]GTPγS incorporation assay was performed on membrane preparations of stably transfected HEK293 cells that expressed the CXCR3 receptor. The assay was carried out in 96-well plates at the final volume of 200 µL. The incubation buffer contained 20 mM HEPES, 10 mM MgCl2•6H20,100 mM NaCl and 100 mg/L saponin (pH 7.4). Membranes (30 µgmL^-1 of membrane protein), various concentrations of test compound and CXCL11, and 1 µM GDP were preincubated in the absence of [^35S]GTPγS for 30 min at 37 °C. After the addition of 0.10 nM [^35S]GTPγS membranes were incubated for additional 30 min at 37 °C. Incubation was terminated by filtration through Whatman GF/B filters soaked with ice cold PBS. The filter-bound radioactivity was measured as described above. Three to four experiments per compound were performed with each concentration in triplicate.
The activation of G proteins was explored in terms of CXCR3 mediated [^35S]GTPγS incorporation. In the [^35S]GTPγS incorporation assay the membrane preparations of HEK293T cells stably expressing CXCR3 were used. The activation of G proteins was monitored as the incorporation of [^35S]GTPγS and thus increase in the incorporated radioactivity. The potency and efficacy of the novel compounds was first compared to the reference compound 46/VUF10661. […] Table 1. The ability of the 46/VUF10661 based positive allosteric modulators to activate CXCR3 as measured in the [35S]GTPγS incorporation assay.[a]

CXCR3-PK1 = biological target: T2, CXCR3-PK1 (Homo sapiens, UniProt P49682); test: β-arrestin 2 recruitment assay (PathHunter, DiscoveRx), CXCR3-PK1 construct; type: cell-based; details: for CXCR3-PK1 pEC50 ± SEM: HEK293-T cells, PathHunter, two to three experiments in triplicate
T2 construct: expressed in transfected cells; host or cells: HEK293 cells stably expressing beta-gal enzyme acceptor (PathHunter, DiscoveRx), transiently transfected
T2 sequence (P49682 1-368): T1 sequence (P49682 1-368)
Procedure: (§1) β-arrestin 2 recruitment assay: The measurement of β-arrestin recruitment was performed utilizing the PathHunter assay purchased from DiscoveRx (DiscoveRx, Birmingham, U.K.) according to the manufacturer's protocol. HEK293 cells stably expressing β-gal enzyme acceptor were transiently transfected with the ProLink (PK1) tagged wildtype CXCR3 receptor using the TransIT-293 transfection reagent from Mirus (purchased from MoBiTec, Goettingen, Germany). The assay was carried out in 384-well plates containing 2000 cells in 20 µL. After incubation at 37°C (5% CO2, 95% relative humidity) overnight, various concentrations of test compounds or CXCL11 (prepared in PBS, pH 7.4, containing 0.20% BSA) were added and the incubation continued for 4 h. Detection mix was then added and incubated for further 60 min at room temperature. Chemiluminescence was determined with a microplate reader Clariostar (BMG labtech, Ortenberg, Germany).
(§2) The ability of the novel ligands according to the present invention to induce CXCR3-mediated β-arrestin 2 recruitment was investigated in the assay system PathHunter (DiscoveRx), which detects the recruitment of β-amestin 2 to the activated receptor using β-galactosidase (β-gal) enzyme fragment complementation. The inventors used two different ProLink tags, ProLink1 (PK1) and ProLink2 (PK2), of which PK2 has higher affinity for the enzyme acceptor to detect weak protein-protein interactions. The CXCR3-PK2 construct is readily able to detect the differences in the propensity of CXCL11 and CXCL10 to induce β-arrestin 2 recruitment at CXCR3. […] Table 3. Ability of the 46/VUF10661 based positive allosteric modulators to activate the CXCR3 as measured in the β-arrestin 2 recruitment assay (PathHunter, DiscoveRx).[a]

CXCR3-PK2 = biological target: T3, CXCR3-PK2 (Homo sapiens, UniProt P49682); test: β-arrestin 2 recruitment assay (PathHunter, DiscoveRx), CXCR3-PK2 construct; type: cell-based; details: for CXCR3-PK2 pEC50 ± SEM: HEK293-T cells, PathHunter
T3 construct: expressed in transfected cells
T3 sequence (P49682 1-368): T1 sequence (P49682 1-368)
Procedure: as §1, §2
To investigate the efficacy of identified partial agonists in the assay format, the inventors used the CXCR3-PK2 construct, which is characterized by higher sensitivity to detect β-arrestin 2 recruitment. The compounds which appeared as weak partial agonists under CXCR3-PK1 conditions appeared as strong partial agonists under CXCR3-PK2 conditions with the efficacy increased up to 80% (Table 4). FAUC1036 reached the efficacy of 66%. […] Table 4. Ability of the compound 5 based positive allosteric modulators to activate the CXCR3 as measured in the β-arrestin 2 recruitment assay (PathHunter, DiscoveRx).[a]

[1] = % of CXCL11 mediated effect, CXCR3-PK1, read-out: CXCR3-PK1 efficacy (%) (converted)
[2] = % of CXCL11 mediated effect, CXCR3-PK2, read-out: CXCR3-PK2 efficacy (%) (converted)

Row | Structure (SMILES) | Emax (CXCR3) | CXCR3 pEC50 ± SEM (CXCR3) | Emax (CXCR3-PK1; [1]) | CXCR3-PK1 pEC50 ± SEM (CXCR3-PK1; CXCR3-PK1) | Emax (CXCR3-PK2; [2]) | CXCR3-PK2 pEC50 ± SEM (CXCR3-PK2; CXCR3-PK2) | CXCR3 Efficacy (%) ± SEM (CXCR3) | β-arrestin 2 recruitment agonism using PK2 tag (result in words) (CXCR3-PK2) | CXCR3 mediated G protein activation (result in words) (CXCR3; [35S]GTPγS incorporation) | β-arrestin 2 recruitment, intrinsic agonism (result in words) (CXCR3-PK1) | Emax (CXCR3-PK1; read-out: CXCR3-PK1 efficacy (%)) | Emax (CXCR3-PK2; read-out: CXCR3-PK2 efficacy (%))
1 | CC(C)(C)OC(=O)N[C@@H](CCCCNC(=O)[C@@H]1Cc2ccccc2CN1C(=O)CCC(=O)O)C(=O)NCC(c1ccccc1)c1ccccc1 [Compound 27, 4-((S)-3-(((S)-5-((tert-butoxycarbonyl)amino)-6-((2,2-diphenylethyl)amino)-6-oxohexyl)carbamoyl)-3,4-dihydroisoquinolin-2(1H)-yl)-4-oxobutanoic acid] |  | No effect |  | No effect |  | No effect | No effect |  |  | no agonistic effect |  | 
2 | N[C@@H](CCCCNC(=O)[C@@H]1Cc2ccccc2CN1)C(=O)NCC(c1ccccc1)c1ccccc1.O=C(O)C(F)(F)F.O=C(O)C(F)(F)F [Compound 28, (S)-3-(((S)-5-ammonio-6-((2,2-diphenylethyl)amino)-6-oxohexyl)carbamoyl)-1,2,3,4-tetrahydroisoquinolin-2-ium 2,2,2-trifluoroacetate] | 40 ± 7% | 5.65±0.23 | 14% | 6.80±0.45 | 85% | 6.55±0.26 |  |  |  |  |  | 
3 | CC(C)(C)OC(=O)N[C@@H](CCCCNC(=O)[C@@H]1Cc2ccccc2CN1C(=O)CCCC(=O)c1ccccc1)C(=O)NCC(c1ccccc1)c1ccccc1 [Compound 24, Tert-butyl ((S)-1-((2,2-diphenylelhyl)amino)-1-oxo-6-((S)-2-(5-oxo-5-phenylpentanoyl)-1,2,3,4-tetrahydroisoquinoline-3-carboxamido)hexan-2-yl)carbamate] |  | No effect |  | 6.84±1.7 |  | 6.78±0.35 | No efffect |  |  |  | 20% | 56%
4 | COc1ccc(C(=O)CCC(=O)N2Cc3ccccc3C[C@H]2C(=O)NCCCC[C@H](NC(=O)OC(C)(C)C)C(=O)NCC(c2ccccc2)c2ccccc2)cc1OC [Compound 21, Tert-butyl ((S)-6-((S)-2-(4-(3,4-dimethoxyphenyl)-4-oxobutanoyl)-1,2,3,4-tetrahydroisoquinoline-3-carboxamido)-1-((2,2-diphenylethyl)amino)-1-oxohexan-2-yl)carbamate] | 18% | 7.30±0.17 |  | No effect |  |  | 18±1% |  |  | complete loss of intrinsic agonistic properties |  | 

Further lines, with some results ahead:

Row | Emax (CXCR3) | CXCR3 pEC50 ± SEM (CXCR3) | Emax (CXCR3-PK1; [1]) | CXCR3-PK1 pEC50 ± SEM (CXCR3-PK1; CXCR3-PK1) | Emax (CXCR3-PK2; [2]) | CXCR3-PK2 pEC50 ± SEM (CXCR3-PK2; CXCR3-PK2) | CXCR3 Efficacy (%) ± SEM (CXCR3) | β-arrestin 2 recruitment agonism using PK2 tag (result in words) (CXCR3-PK2) | Structure (SMILES) | CXCR3 mediated G protein activation (result in words) (CXCR3; [35S]GTPγS incorporation) | β-arrestin 2 recruitment, intrinsic agonism (result in words) (CXCR3-PK1) | Emax (CXCR3-PK1; read-out: CXCR3-PK1 efficacy (%)) | Emax (CXCR3-PK2; read-out: CXCR3-PK2 efficacy (%))
5 | 33 ± 7% | 5.97±0.34 | ~36% | 6.63±0.17 | 30% | 7.23±0.69 |  |  | CC(C)(C)OC(=O)NCCCC[C@@H](NC(=O)[C@@H]1Cc2ccccc2CN1C(=O)CCC(=O)c1ccccc1)C(=O)NCC(c1ccccc1)c1ccccc1 [Compound 45, Tert-butyl ((R)-6-((2,2-diphenylethyl)amino)-6-oxo-5-((S)-2-(4-oxo-4-phenylbutanoyl)-1,2,3,4-tetrahydroisoquinoline-3-carboxamido)hexyl)carbamate] |  |  |  | 
6 |  | No effect | 16% | 6.95±0.50 | 88% | 6.86±0.19 | No effect | reached the levels of full agonism | CC(C)(C)OC(=O)N[C@H](CCCCNC(=O)[C@@H]1Cc2ccccc2CN1C(=O)CCC(=O)c1ccccc1)C(=O)NCC(c1ccccc1)c1ccccc1 [Compound 34, Tert-butyl ((R)-1-((2,2-diphenylethyl)amino)-1-oxo-6-((S)-2-(4-oxo-4-phenylbutanoyl)-1,2,3,4-tetrahydroisoquinoline-3-carboxamido)hexan-2-yl)carbamate] | failed to induce CXCR3 mediated G protein activation |  |  | 
7 |  | No effect | 34% | 6.78±0.17 | 63% | 6.64±0.33 | No effect |  | CC(=O)CCC(=O)N1Cc2ccccc2C[C@H]1C(=O)NCCCC[C@H](NC(=O)OC(C)(C)C)C(=O)NCC(c1ccccc1)c1ccccc1 [Compound 12, Tert-butyl((S)-1-((2,2-diphenylethyl)amino)-1-oxo-6-((S)-2-(4-oxopentanoyl)-1,2,3,4-tetrahydroisoquinoline-3-carboxamido)hexan-2-yl)carbamate] |  |  |  | 
8 | 25 ± 3% | 5.91±0.20 |  | No effect |  |  |  |  | CC(C)(C)OC(=O)N[C@@H](CCCCNC(=O)[C@@H]1Cc2ccccc2CN1C(=O)CCC(=O)c1ccc(S(C)(=O)=O)cc1)C(=O)NCC(c1ccccc1)c1ccccc1 [Compound 15, Tert-butyl ((S)-1-((2,2-diphenylethyl)amino)-6-((S)-2-(4-(4-(methylsulfonyl)phenyl)-4-oxobutanoyl)-1,2,3,4-tetrahydroisoquinoline-3-carboxamido)-1-oxohexan-2-yl)carbamate] |  | complete loss of intrinsic agonistic properties |  | 
